Data from patent US8981106B2, “Pyrimidinecarboxamides as CXCR2 modulators” (Syntrix Biosystems, Inc., priority 2009, dated 2015).

biological target: CXCR2 (Homo sapiens (Human), UniProt P25025); test: Inhibition of GROα-mediated intracellular calcium release in human neutrophils (FLIPR-3 Ca2+ mobilization); type: cell-based; settings: human neutrophils, 25 nM GROα; read-out: IC50
Description: In Tables 1-5, the IC50 or EC50 values were determined using the following assay. This assay measures intracellular calcium release via fluorescence as an indication of CXCR2 receptor activation by the physiologic agonist GROα. The assay is a Ca^2+ mobilization assay that measures changes in intracellular Ca^2+ with a FlexStation II scanning fluorometer using a FLIPR-3 Calcium Assay Kit (Molecular Devices, Sunnyvale, Calif.). The procedure is as follows:
1. Human neutrophils were suspended in HBSS^− (without Ca^2+ and Mg^2+) containing 10 mM HEPES and FLIPR Calcium 3 dye (3.1×10^7 cells in total volume 1.7 mL).
2. […] As controls, 2 μL of DMSO (1% final concentration) were added to other 2 tubes.
3. Cells were incubated for 30 min at 37° C.
4. After dye loading, tubes were centrifuged at 6,000 rpm for 1 min, supernatant was removed and cell pellet was re-suspended in 200 μL of HBSS^+ (with Ca^2+ and Mg^2+) containing 10 mM HEPES.
5. The compound or DMSO (control) was added again at the same concentrations that were used during cell loading.
6. The cell suspension was aliquoted into a 96-well Reading Plate (Corning) in a volume of 90 μL (10^5 cells/well). The Compound Plate contained physiologic agonist (GROα in HBSS^−) or HBSS^− (control).
9. The maximum change in fluorescence, expressed in arbitrary units over baseline (Max-Min) was used to determine the GROα response. […] Therapeutic Activity
Briefly, human neutrophils were suspended in HBSS^− (without Ca^2+ and Mg^2+) containing 10 mM HEPES and FLIPR Calcium 3 dye (3.1×10^7 cells in total volume 1.7 mL). […] As controls, 2 μL of DMSO (1% final concentration) were added to 2 other tubes. Cells were incubated for 30 min at 37° C. After dye loading, tubes were centrifuged at 6,000 rpm for 1 min, supernatant was removed and the cell pellet was re-suspended in 200 μL of HBSS^+ (with Ca^2+ and Mg^2+) containing 10 mM HEPES. The test compound or DMSO (control) was added again at the same concentrations that were used during cell loading. The cell suspension was aliquoted into a 96-well Reading Plate (Corning) in a volume of 90 μL (10^5 cells/well). The Compound Plate contained agonist (GROα in HBSS^−) or HBSS^− (control).
The maximum change in fluorescence, expressed in arbitrary units over baseline (Max-Min), was used to determine the GROα response.

Chain of CXCR2 (P25025 whole entry): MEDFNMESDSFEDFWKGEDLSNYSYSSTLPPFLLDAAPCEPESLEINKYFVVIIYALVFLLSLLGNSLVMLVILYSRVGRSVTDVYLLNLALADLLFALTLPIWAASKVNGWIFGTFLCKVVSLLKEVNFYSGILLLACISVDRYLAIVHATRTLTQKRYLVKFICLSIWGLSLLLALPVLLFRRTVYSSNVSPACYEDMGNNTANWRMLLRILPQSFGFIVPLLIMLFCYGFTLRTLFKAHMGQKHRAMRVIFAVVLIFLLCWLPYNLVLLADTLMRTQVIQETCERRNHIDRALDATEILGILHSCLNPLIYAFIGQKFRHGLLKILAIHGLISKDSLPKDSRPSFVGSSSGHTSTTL

SMILES | IC50 [µM]
O=C(Nc1ccc(F)cc1)c1ccc(SCc2cc(F)ccc2B(O)O)nc1 [Compound 3] | 0.052 ± 0.005
COc1cc(CSc2ccc(C(=O)Nc3ccc(F)cc3)cn2)c(B(O)O)cc1OC [Compound 5, 6-(2-boronic acid-4,5-di-methoxy-benzylsulfanyl)-N-(4-fluoro-phenyl)-nicotinamide] | > 10
O=C(Nc1ccc(F)cc1)c1ccc(SCc2cc3c(cc2B(O)O)OCO3)nc1 [Compound 6] | > 10
O=C(Nc1ccc(F)cc1)c1ccc(SCc2cccc(B(O)O)c2)nc1 [Compound 7] | 1.97 ± 0.75
O=C(Nc1ccc(F)cc1)c1ccc(SCc2ccc(B(O)O)cc2)nc1 [Compound 8] | 0.899 ± 0.15
O=C(Nc1ccc(F)cc1)c1ccc(SCCc2ccccc2B(O)O)nc1 [Compound 9] | 0.387 ± 0.125
O=C(Nc1ccc(F)cc1)c1ccc(SCCCCB(O)O)nc1 [Compound 10] | 0.689 ± 0.23
O=C(Nc1ccc(F)cc1)c1ccc(SCc2ccccc2)nc1 [Compound 12] | 0.393 ± 0.16
CC(=O)Oc1ccccc1CSc1ccc(C(=O)Nc2ccc(F)cc2)cn1 [Compound 13a] | > 5
CC(=O)Oc1ccc(OC(F)(F)F)cc1CSc1ccc(C(=O)Nc2ccc(F)cc2)cn1 [Compound 14a] | 1.06 ± 0.27
CC1(C)OB(c2ccccc2CCSc2ccc(C(=O)Nc3ccc(F)cc3)cn2)OC1(C)C [Compound 15] | 0.611
CC1(C)OB(c2ccccc2CSc2ccc(C(=O)Nc3ccc(F)cc3)cn2)OC1(C)C [Compound 16] | 0.275 ± 0.103
CC1(C)C2CC3OB(c4ccccc4CSc4ccc(C(=O)Nc5ccc(F)cc5)cn4)OC3(C)C1C2 (centres unmarked) [Compound 17] | 0.059 ± 0.029
CC1(C)OB(c2ccc(F)cc2CSc2ccc(C(=O)Nc3ccc(F)cc3)cn2)OC1(C)C [Compound 18] | 1.23 ± 0.12
CC1(C)OB(c2ccc(OC(F)(F)F)cc2CSc2ccc(C(=O)Nc3ccc(F)cc3)cn2)OC1(C)C [Compound 19, 6-(2-boronic pinacol ester-5-trifluoromethoxy-benzylsulfanyl)-N-(4-fluoro-phenyl)-nicotinamide] | 0.072 ± 0.007
CC1(C)OB(c2ccc(CSc3ccc(C(=O)Nc4ccc(F)cc4)cn3)cc2)OC1(C)C [Compound 20] | 0.112 ± 0.067
COC(=O)c1ccccc1CSc1ccc(C(=O)Nc2ccc(F)cc2)cn1 [Compound 21] | 0.759 ± 0.19
COC(=O)c1cccc(CSc2ccc(C(=O)Nc3ccc(F)cc3)cn2)c1 [Compound 22] | > 5
COC(=O)c1ccc(CSc2ccc(C(=O)Nc3ccc(F)cc3)cn2)cc1 [Compound 23] | > 10
O=C(Nc1ccc(F)cc1)c1ccc(SCc2ccccc2C(=O)O)nc1 [Compound 24] | 1.48 ± 0.49
O=C(O)c1cccc(CSc2ccc(C(=O)Nc3ccc(F)cc3)cn2)c1 [Compound 25] | 2.12 ± 0.74
O=C(Nc1ccc(F)cc1)c1ccc(SCc2ccccc2-c2nn[nH]n2)nc1 [Compound 26] | 0.173 ± 0.046
O=C(Nc1ccc(F)cc1)c1ccc(SCc2ccc(Cl)c(Cl)c2)nc1 [Compound 27] | 1.61
Cc1cccc(CSc2ccc(C(=O)Nc3ccc(F)cc3)cn2)c1F [Compound 28] | > 10

SMILES | IC50 [µM]
O=C(Nc1ccc(F)cc1)c1ccc(SCc2ccc(-c3ccsc3)cc2)nc1 [Compound 29] | > 10
O=C(Nc1ccc(F)cc1)c1ccc(SCc2ccccc2-c2cccs2)nc1 [Compound 30] | > 5
O=C(Nc1ccc(F)cc1)c1ccc(SCc2ccc(-n3cccc3)cc2)nc1 [Compound 31] | > 10
O=C(Nc1ccc(F)cc1)c1ccc(SCc2ccc(-n3cccn3)cc2)nc1 [Compound 32] | > 10
O=C(Nc1ccc(F)cc1)c1ccc(SCc2ccc(-n3cncn3)cc2)nc1 [Compound 33] | > 10
Cc1nc(-c2ccc(CSc3ccc(C(=O)Nc4ccc(F)cc4)cn3)cc2)no1 [Compound 34] | > 10
Cc1nc(-c2cccc(CSc3ccc(C(=O)Nc4ccc(F)cc4)cn3)c2)no1 [Compound 35] | > 10
Cc1nc(-c2ccc(CSc3ccc(C(=O)Nc4ccc(F)cc4)cn3)cc2)cs1 [Compound 36] | > 10
Cc1nc(-c2cccc(CSc3ccc(C(=O)Nc4ccc(F)cc4)cn3)c2)cs1 [Compound 37] | > 5
O=C(Nc1ccc(F)cc1)c1ccc(SCc2cccc(-n3cccc3)c2)nc1 [Compound 38] | > 10
O=C(Nc1ccc(F)cc1)c1ccc(SCc2ccc([N+](=O)[O-])cc2)nc1 [Compound 39] | > 10
O=C(Nc1ccc(F)cc1)c1ccc(SCc2cc([N+](=O)[O-])ccc2O)nc1 [Compound 40] | > 5
O=C(Nc1ccc(F)cc1)c1ccc(SCc2ccc(OC(F)(F)F)cc2)nc1 [Compound 41] | > 10
O=C(Nc1ccc(F)cc1)c1ccc(SCc2cccc(OC(F)(F)F)c2)nc1 [Compound 42] | > 10
O=C(Nc1ccc(F)cc1)c1ccc(SCc2ccncc2)nc1 [Compound 43] | > 5
Cc1cc(CSc2ccc(C(=O)Nc3ccc(F)cc3)cn2)no1 [Compound 44] | > 5
Cc1onc(-c2ccccc2)c1CSc1ccc(C(=O)Nc2ccc(F)cc2)cn1 [Compound 45] | > 5
Cc1noc(-c2ccccc2)c1CSc1ccc(C(=O)Nc2ccc(F)cc2)cn1 [Compound 46] | > 10
Cc1n[nH]c(C)c1CCSc1ccc(C(=O)Nc2ccc(F)cc2)cn1 [Compound 47] | > 5
O=C(Nc1ccc(F)cc1)c1ccc(SCc2nn[nH]n2)nc1 [Compound 49] | 3.9 ± 1.2
O=C(Nc1ccc(F)cc1)c1ccc(SCc2cccc3c2OCCCO3)nc1 [Compound 50] | 0.35
O=C(Nc1ccc(F)cc1)c1ccc(SCC2COc3ccccc3O2)nc1 (centres unmarked) [Compound 51] | 0.76
O=C(Nc1ccc(F)cc1)c1ccc(SCCOc2cccc3c2OCCO3)nc1 [Compound 52] | 1.58
O=C(Nc1ccc(F)cc1)c1ccc(SCc2cccc3cccnc23)nc1 [Compound 53] | > 5

SMILES | IC50 [µM]
O=C(Nc1ccc(F)cc1)c1ccc(SCc2nccc3ccccc23)nc1 [Compound 54] | > 5
Cc1ccc2cc(CSc3ccc(C(=O)Nc4ccc(F)cc4)cn3)ccc2n1 [Compound 55] | > 10
O=C(Nc1ccc(F)cc1)c1ccc(SCc2ccc3nc(C(F)(F)F)cc(Cl)c3c2)nc1 [Compound 56] | > 5
Nc1nc(N)c2nc(CSc3ccc(C(=O)Nc4ccc(F)cc4)cn3)cnc2n1 [Compound 57] | > 10
O=C(Nc1ccc(F)cc1)c1ccc(SCCCN2C(=O)c3ccc([N+](=O)[O-])cc3C2=O)nc1 [Compound 58] | > 5
O=C(Nc1ccc(F)cc1)c1ccc(SCCCCN2C(=O)c3ccc([N+](=O)[O-])cc3C2=O)nc1 [Compound 59] | > 10
O=C(Nc1ccc(F)cc1)c1ccc(SCCCCCCN2C(=O)c3ccc([N+](=O)[O-])cc3C2=O)nc1 [Compound 60] | > 10
O=C(Nc1ccc(F)cc1)c1ccc(SCc2ccc3nsnc3c2)nc1 [Compound 62] | > 10
O=C(Nc1ccc(F)cc1)c1ccc(SCc2cc3nsnc3cc2Cl)nc1 [Compound 63] | > 10
O=C(Nc1ccc(F)cc1)c1ccc(SCc2cccc3nsnc23)nc1 [Compound 64] | > 5
O=C(Nc1ccc(F)cc1)c1ccc(SCc2ccc3nonc3c2)nc1 [Compound 65] | 0.216 ± 0.066
O=C(Nc1ccc(F)cc1)c1ccc(SCc2cccc3nonc23)nc1 [Compound 66] | > 5
Cn1c(CSc2ccc(C(=O)Nc3ccc(F)cc3)cn2)nc2ccccc21 [Compound 67] | > 10
O=C(Nc1ccc(F)cc1)c1ccc(SCc2nc3ccccc3s2)nc1 [Compound 68] | > 10
O=C(Nc1ccc(F)cc1)c1ccc(SCc2csc3ccc(Cl)cc23)nc1 [Compound 69] | > 10
Cc1nc(-c2ccccc2)sc1CSc1ccc(C(=O)Nc2ccc(F)cc2)cn1 [Compound 70] | 1.21 ± 0.39
Cc1nc(-c2ccc(C(F)(F)F)cc2)sc1CSc1ccc(C(=O)Nc2ccc(F)cc2)cn1 [Compound 71] | > 10
O=C(Nc1ccc(F)cc1)c1ccc(SCCOc2ccccc2)nc1 [Compound 72] | > 10
O=C(Nc1ccc(F)cc1)c1ccc(SCc2ccc(C(F)(F)F)o2)nc1 [Compound 74] | > 5
O=C(Nc1ccc(F)cc1)c1ccc(SCc2ccc([N+](=O)[O-])o2)nc1 [Compound 75] | > 5
O=C(Nc1ccc(F)cc1)c1ccc(SCC2CCCO2)nc1 (centres unmarked) [Compound 76] | 0.542 ± 0.104
O=C(Nc1ccc(F)cc1)c1ccc(SCC2CCOCC2)nc1 [Compound 77] | > 10
O=C(Nc1ccc(F)cc1)c1ccc(SCC2CCCCO2)nc1 (centres unmarked) [Compound 78] | > 5
